Test results taken from patent US20020165286A1, “Dermal anti-inflammatory composition” (priority 2000, published 2002).
Where two headings read alike, the source gives them in different places.

Columns and labels:
[1] = cited from earlier work
[2] = cited from earlier work; remark: listed apart in the source
[3] = cited from earlier work; remark: listed apart in the source
[4] = cited from earlier work; remark: listed apart in the source
[5] = cited from earlier work; remark: listed apart in the source
rhino mouse = assay: Rhino mouse study: comedolytic activity (number of utriculi, epidermal thickness); type: in vivo, rhino mice (RHJ/LeJ Rhino, hr^rh/hr^rh); settings: test substance dissolved in ethanol only
Excerpt: The rhino mouse is an in vivo model for the study of hyperplastic and comedolytic potency of various drugs used in the treatment of acne. The rhino mouse has follicles on the skin. The orifices are distended with horny material and these structures resembles human microcomedones and are referred to as utriculi or pseudocomedones.
In the present study, the comedolytic activity and skin irritation potential of 3% w/v solutions of test substance (1) in different vehicles was studied in order to select a formulation suited for topical application. Selected commercial acne products were included in the study for the purpose of comparison.
105 female rhino mice (RHJ/LeJ Rhino, hr^rh/hr^rh) aged 6-9 weeks were obtained from M&B A/S, Denmark. The mice were placed in cages with free access to a commercial rodent diet (Altromin 1324) and tap water. […]
The mice were killed one day after the end of the treatment period and the dorsal skin was removed. […] These slices were evaluated under the microscope (Nikon LABOPHOT-2) for the number of epidermal utriculi and utriculi profile (×200) and the epidermal thickness (×400), and the mean value and standard deviation for each animal was estimated. […]

Compound | Potential irritant ([1]; topical administration) | Teratogenic ([2]; topical administration) | Antibacterial ([3]; topical administration) | Anti-inflam. ([4]; topical administration) | Comedolytic ([5]; topical administration) | Potential irritant ([1]; systemic administration) | Teratogenic ([2]; systemic administration) | Antibacterial ([3]; systemic administration) | Anti-inflam. ([4]; systemic administration) | Comedolytic ([5]; systemic administration) | reduction in the number of utriculi (rhino mouse) [%]
O=C(O)CCCCCCCC(=O)O [Azelaic acid] | Yes | No | Yes | Maybe | Yes | – | – | – | – | – | –
O=C(OOC(=O)c1ccccc1)c1ccccc1 [Benzoyl peroxide] | Yes | – | Yes | Maybe | Somewhat | – | – | – | – | – | –
C[C@H]1c2cccc(O)c2C(O)=C2C(=O)[C@]3(O)C(O)=C(C(N)=O)C(=O)[C@@H](N(C)C)[C@@H]3[C@@H](O)[C@@H]21 [Doxycyclin] | – | – | – | – | – | No | Yes | Yes | Yes | No | –
CC1=C(/C=C/C(C)=C/C=C/C(C)=C\C(=O)O)C(C)(C)CCC1 [Isotretinoin] | – | – | – | – | – | Yes | Yes | Yes | Yes | Yes | –
CN(C)c1ccc(O)c2c1C[C@H]1C[C@H]3[C@H](N(C)C)C(O)=C(C(N)=O)C(=O)[C@@]3(O)C(O)=C1C2=O [Minocyclin] | – | – | – | – | – | – | Yes | Yes | Yes | No | –
CN(C)[C@@H]1C(=O)C(C(N)=O)=C(O)[C@@]2(O)C(=O)C3=C(O)c4c(O)cccc4[C@@](C)(O)[C@H]3C[C@@H]12 [Tetracyclin] | – | – | – | – | – | No | Yes | Yes | Yes | No | –
CC1=C(/C=C/C(C)=C/C=C/C(C)=C/C(=O)O)C(C)(C)CCC1 [Tretinoin] | Yes | Maybe | No | No | Yes | – | – | – | – | – | –
Cc1cc(F)ccc1Nc1ccc(C(=O)c2ccccc2C)c(Cl)c1 [test substance (1), 2-chloro-4-(4-fluoro-2-methyl-phenylamino)-2′-methylbenzophenone] | – | – | – | – | – | – | – | – | – | – | 51
